Legend:
[1] = test system: Rat Carrageenan-Induced Footpad Edema; assay: Rat Carrageenan-Induced Footpad Edema Test; assay type: in vivo, male Sprague Dawley rats; details: footpad volume 3 hours after carrageenan; for inhibition in vivo at 5 mg/kg: iv
[2] = biological target: T1, cPLA2 (Homo sapiens, UniProt P47712); assay: Coumarin Assay (cPLA2 inhibition); assay type: biochemical; details: for inhibition at 10 µM: CONCENTRATION 10 micromolar; for inhibition at 30 µM: CONCENTRATION 30 micromolar; for inhibition at 2.5 µM: CONCENTRATION 2.5 micromolar; for inhibition at 3.8 µM: CONCENTRATION 3.8 micromolar; for inhibition at 7 µM: CONCENTRATION 7 micromolar
T1 sequence (P47712 1-749): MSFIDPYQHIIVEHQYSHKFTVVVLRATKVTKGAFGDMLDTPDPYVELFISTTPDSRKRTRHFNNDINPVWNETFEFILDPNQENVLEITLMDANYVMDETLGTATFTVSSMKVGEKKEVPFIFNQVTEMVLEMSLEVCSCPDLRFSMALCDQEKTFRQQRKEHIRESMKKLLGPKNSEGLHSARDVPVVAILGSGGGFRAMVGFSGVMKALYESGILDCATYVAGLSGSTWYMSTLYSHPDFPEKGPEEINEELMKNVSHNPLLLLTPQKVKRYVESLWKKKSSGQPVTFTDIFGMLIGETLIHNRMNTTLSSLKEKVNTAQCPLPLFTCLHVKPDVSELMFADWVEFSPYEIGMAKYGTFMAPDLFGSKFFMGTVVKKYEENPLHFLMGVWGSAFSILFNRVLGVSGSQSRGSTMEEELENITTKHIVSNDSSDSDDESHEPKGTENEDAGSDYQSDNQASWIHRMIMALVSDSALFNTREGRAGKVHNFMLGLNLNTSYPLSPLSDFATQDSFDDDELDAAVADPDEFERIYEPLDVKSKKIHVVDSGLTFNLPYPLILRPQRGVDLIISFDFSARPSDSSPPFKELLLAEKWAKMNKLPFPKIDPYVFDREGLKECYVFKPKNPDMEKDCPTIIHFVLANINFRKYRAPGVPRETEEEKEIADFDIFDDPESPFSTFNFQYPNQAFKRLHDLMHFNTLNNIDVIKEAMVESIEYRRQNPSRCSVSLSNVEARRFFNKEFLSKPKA
Procedure, shortened: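 Percent inhibition at the stated concentration, from the rate of 460 nm emission rise (360 nm excitation) per minute. Reaction started by adding 4 μg enzyme to compound and 60 μM 7-hydroxycoumarinyl 6-heptenoate in Hepes buffer pH 7.5 with 1 mM EDTA.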

[3] = Rattus norvegicus, po, 3 h, PO, 2 mg/Kg, read-out: PERCENT INHIBITION
[4] = Rattus norvegicus, 3 h, IV, 5 mg/Kg, read-out: PERCENT INHIBITION
[5] = CONCENTRATION 20 micromolar, read-out: PERCENT INHIBITION @

COc1cc(C(=O)O)ccc1Cc1cn(C(c2ccccc2)c2ccccc2)c2ccc(NS(=O)(=O)c3c(C)noc3C)cc12 [Example 96, 4-[(1-benzhydryl-5-{[(3,5-dimethyl-4-isoxazolyl)sulfonyl]amino}-1H-indol-3-yl)methyl]-3-methoxybenzoic acid]
inhibition in vivo at 2 mg/kg [1, 3]: 29.4% | inhibition in vivo at 10 mg/kg ([1]; Rattus norvegicus, po, 3 h, PO, 10 mg/Kg, read-out: PERCENT INHIBITION): 22% | inhibition at 8 µM ([2]; CONCENTRATION 8 micromolar, read-out: PERCENT INHIBITION @): 50% | inhibition at 10.5 µM ([2]; CONCENTRATION 10.5 micromolar, read-out: PERCENT INHIBITION @): 50%

COc1cc(C(=O)NS(=O)(=O)c2ccccc2C)ccc1Cc1cn(C(C)C)c2ccc(NC(=O)OC3CCCC3)cc12 [Example 24, Cyclopentyl N-{1-isopropyl-3-[2-methoxy-4-({[(2-methylphenyl)sulfonyl]amino}carbonyl)benzyl]-1H-indol-5-yl}carbamate]
inhibition in vivo at 5 mg/kg [1, 4]: 8.33% | PERCENT INHIBITION @ ([2]; CONCENTRATION 100 micromolar): 50% | inhibition at 100 µM ([2]; CONCENTRATION 100 micromolar, read-out: PERCENT INHIBITION @): 42%

COc1cc(C(=O)NS(=O)(=O)c2cccc3c(N(C)C)cccc23)ccc1Cc1cn(C(c2ccccc2)c2ccccc2)c2ccc(NC(=O)OC3CCCC3)cc12 [Example 30]
PERCENT INHIBITION ([1]; IV, 5 mg/Kg): 13.89% | PERCENT INHIBITION ([1]; PO, 2 mg/Kg): −0.11% | PERCENT INHIBITION ([1]; PO, 10 mg/Kg): 13.25% | PERCENT INHIBITION @ ([2]; CONCENTRATION 8 micromolar): 50% | PERCENT INHIBITION @ ([2]; CONCENTRATION 20 micromolar): 46% | PERCENT INHIBITION @ ([2]; CONCENTRATION 21 micromolar): 50% | PERCENT INHIBITION @ ([2]; CONCENTRATION 24 micromolar): 50%

COc1cc(C(=O)NS(C)(=O)=O)ccc1Cc1cn(C(c2ccccc2)c2ccccc2)c2ccc(NC(=O)OC3CCCC3)cc12 [Example 27, cyclopentyl N-[1-benzhydryl-3-(2-methoxy-4-{[(methylsulfonyl)amino]carbonyl}benzyl)-1H-indol-5-yl]carbamate]
inhibition in vivo at 5 mg/kg [1, 4]: 6.48% | inhibition at 6 µM ([2]; CONCENTRATION 6 micromolar, read-out: PERCENT INHIBITION @): 50% | inhibition at 6.4 µM ([2]; CONCENTRATION 6.4 micromolar, read-out: PERCENT INHIBITION @): 50%

COc1cc(C(=O)O)ccc1Cc1cn(C(c2ccccc2)c2ccccc2)c2ccc(NC(=O)C3CCCC3)cc12 [Example 11, 4-({1-benzhydryl-5-[(cyclopentylcarbonyl)amino]-1H-indol-3-yl}methyl)-3-methoxybenzoic acid]
inhibition in vivo at 5 mg/kg [1, 4]: 14% | inhibition at 10 µM ([2]; read-out: PERCENT INHIBITION @): 42% | inhibition at 12 µM ([2]; CONCENTRATION 12 micromolar, read-out: PERCENT INHIBITION @): 50% | inhibition at 12.5 µM ([2]; CONCENTRATION 12.5 micromolar, read-out: PERCENT INHIBITION @): 52% | inhibition at 20 µM [2, 5]: 36% | inhibition at 27.5 µM ([2]; CONCENTRATION 27.5 micromolar, read-out: PERCENT INHIBITION @): 50% | inhibition at 30 µM ([2]; read-out: PERCENT INHIBITION @): 50% | inhibition at 37 µM ([2]; CONCENTRATION 37 micromolar, read-out: PERCENT INHIBITION @): 50%

COc1cc(C(=O)NS(=O)(=O)C(F)(F)F)ccc1Cc1cn(C(c2ccccc2)c2ccccc2)c2ccc(NS(C)(=O)=O)cc12 [Example 41, N-[4-({1-benzhydryl-5-[(methylsulfonyl)amino]-1H-indol-3-yl}methyl)-3-methoxybenzoyl](trifluoro)methanesulfonamide]
inhibition in vivo at 5 mg/kg [1, 4]: 10.1% | inhibition at 2.5 µM ([2]; read-out: PERCENT INHIBITION @): 50% | inhibition at 3.8 µM ([2]; read-out: PERCENT INHIBITION @): 50% | inhibition at 4.3 µM ([2]; CONCENTRATION 4.3 micromolar, read-out: PERCENT INHIBITION @): 50% | inhibition at 5 µM ([2]; CONCENTRATION 5 micromolar, read-out: PERCENT INHIBITION @): 50%

O=C(Nc1cccc(C(=O)O)c1)C(=O)c1cn(Cc2ccc(OCc3ccccc3)c(OCc3ccccc3)c2)c2ccccc12 [Example 63, 3-[(2-{1-[3,4-bis(benzyloxy)benzyl]-1H-indol-3-yl}-2-oxoacetyl)amino]benzoic acid]
inhibition in vivo at 5 mg/kg [1, 4]: 19.6% | inhibition at 2.5 µM ([2]; read-out: PERCENT INHIBITION @): 70% | inhibition at 7 µM ([2]; read-out: PERCENT INHIBITION @): 50%

O=C(Cc1cn(Cc2ccc(Cc3ccccc3)cc2)c2ccc(OCc3ccccc3)cc12)Nc1cccc(C(=O)O)c1 [Example 105, 3-({2-[1-(4-benzylbenzyl)-5-(benzyloxy)-1H-indol-3-yl]acetyl}amino)benzoic acid]
inhibition in vivo at 5 mg/kg [1, 4]: 1.51% | inhibition at 2.4 µM ([2]; CONCENTRATION 2.4 micromolar, read-out: PERCENT INHIBITION @): 50% | inhibition at 7 µM ([2]; read-out: PERCENT INHIBITION @): 50% | inhibition at 10 µM ([2]; read-out: PERCENT INHIBITION @): 74%

CCCCNC(=O)Nc1ccc2c(c1)c(Cc1ccc(C(=O)NS(=O)(=O)C(F)(F)F)cc1OC)cn2C(c1ccccc1)c1ccccc1 [Example 42, N-{4-[(1-benzhydryl-5-{[(butylamino)carbonyl]amino}-1H-indol-3-yl)methyl]-3-methoxybenzoyl}(trifluoro)methanesulfonamide]
inhibition in vivo at 5 mg/kg [1, 4]: 7.72% | inhibition at 2.2 µM ([2]; CONCENTRATION 2.2 micromolar, read-out: PERCENT INHIBITION @): 50% | inhibition at 3 µM ([2]; CONCENTRATION 3 micromolar, read-out: PERCENT INHIBITION @): 50% | inhibition at 3.8 µM ([2]; read-out: PERCENT INHIBITION @): 50%

COc1cc(C(=O)O)ccc1Cc1cn(C(c2ccccc2)c2ccccc2)c2ccc(NS(=O)(=O)c3ccccc3C)cc12 [Example 94, 4-[(1-benzhydryl-5-{[(2-methylphenyl)sulfonyl]amino}-1H-indol-3-yl)methyl]-3-methoxybenzoic acid]
inhibition in vivo at 2 mg/kg [1, 3]: 19% | inhibition in vivo at 3 mg/kg ([1]; Rattus norvegicus, po, 3 h, PO, 3 mg/Kg, read-out: PERCENT INHIBITION): 3.13% | inhibition at 7 µM ([2]; read-out: PERCENT INHIBITION @): 50% | inhibition at 7.5 µM ([2]; CONCENTRATION 7.5 micromolar, read-out: PERCENT INHIBITION @): 50%

COc1cc(C(=O)O)ccc1Cc1cn(C(c2ccccc2)c2ccccc2)c2ccc(NS(C)(=O)=O)cc12 [Example 10, 4-({1-benzhydryl-5-[(methylsulfonyl)amino]-1H-indol-3-yl}methyl)-3-methoxybenzoic acid]
inhibition in vivo at 5 mg/kg [1, 4]: 25.3% | inhibition at 20 µM [2, 5]: 50% | inhibition at 30 µM ([2]; read-out: PERCENT INHIBITION @): 50% | inhibition at 33.5 µM ([2]; CONCENTRATION 33.5 micromolar, read-out: PERCENT INHIBITION @): 50% | inhibition at 40 µM ([2]; CONCENTRATION 40 micromolar, read-out: PERCENT INHIBITION @): 50% | inhibition at 45 µM ([2]; CONCENTRATION 45 micromolar, read-out: PERCENT INHIBITION @): 50%

4-[(1-benzhydryl-5-nitro-1H-indol-3-yl)methyl]3-methoxybenzoic acid [Example 12]
PERCENT INHIBITION ([1]; PO, 2 mg/Kg): 0.19% | PERCENT INHIBITION ([1]; PO, 10 mg/Kg): −0.38% | PERCENT INHIBITION @ ([2]; CONCENTRATION 0.35 micromolar): 50% | PERCENT INHIBITION @ ([2]; CONCENTRATION 0.38 micromolar): 50% | PERCENT INHIBITION @ ([2]; CONCENTRATION 0.39 micromolar): 50% | PERCENT INHIBITION @ ([2]; CONCENTRATION 0.4 micromolar): 50% | PERCENT INHIBITION @ ([2]; CONCENTRATION 0.44 micromolar): 50% | PERCENT INHIBITION @ ([2]; CONCENTRATION 0.45 micromolar): 50% | PERCENT INHIBITION @ ([2]; CONCENTRATION 0.5 micromolar): 64% | PERCENT INHIBITION @ ([2]; CONCENTRATION 1.25 micromolar): 86%

COc1cc(-c2nnn[nH]2)ccc1Cc1cn(C(c2ccccc2)c2ccccc2)c2ccc(NC(=O)OC3CCCC3)cc12 [Example 98, cyclopentyl N-{1-benzhydryl-3-[2-methoxy-4-(1H-1,2,3,4-tetraazol-5-yl)benzyl]-1H-indol-5-yl}carbamate]
inhibition in vivo at 5 mg/kg [1, 4]: 18.4% | inhibition at 4.8 µM ([2]; CONCENTRATION 4.8 micromolar, read-out: PERCENT INHIBITION @): 50% | inhibition at 6.25 µM ([2]; CONCENTRATION 6.25 micromolar, read-out: PERCENT INHIBITION @): 66% | inhibition at 8.7 µM ([2]; CONCENTRATION 8.7 micromolar, read-out: PERCENT INHIBITION @): 50%
